The values below come from US20030091533A1, “Regulation of mononuclear phagocyte stimulation” (priority 2001, published 2003).

Experiment [1] relates to LPS-stimulated PBM. The experiment is described as follows: Intracellular oxidative burst, DCFH oxidation assay, PBM. In kind it is cell-based, human. To be noted: for oxidative burst in LPS-stimulated PBM with IFN-γ: preincubated 24 hour with cytokine 20 ng/ml in the presence of IFN-γ 200 U/ml, LPS 1 μg/ml 20 hour; for LPS-stimulated oxidative burst in PBM: preincubation 24 hour with cytokine 20 ng/ml, then LPS 1 μg/ml 20 hour, without IFN-γ; for Oxidative burst (nmoles DCF/mg protein): LPS 1 μg/ml 20 h. The procedure:
Intracellular oxidative capacity was assessed essentially as described by Bass et al., J. Immunol., 130:1910-1917 (1983) (incorporated herein by reference) as described infra.
Cells (0.2×10^6) were preincubated for 24 hour with IL-9 or IL-4 (20 ng/ml) in the presence of IFN-γ (200 U/ml) before stimulation for 20 hour with LPS (1 μg/ml). The intracellular oxidative capacity was measured through the DCFH oxidation assay as describe herein. FIG. 3 depicts the effect of IFN-γ on the inhibition mediated by IL-9 and IL-4 on the oxidative burst in LPS-stimulated PBM (A) and AM (B).
Table 1. Specific blockade of the IL-9 inhibitory effect on oxidative burst in LPS-15 stimulated PBM and AM by anti-hIL-9R mAb. Cells (0.2×10^6) were preincubated with neutralizing mAb against hIL-9R (AH9R7, 10 μg/ml), or with control mIgG2b (10 μg/ml), 1 hour before incubation with IL-9 (20 ng/ml) for 24 hour without removing mAb, and stimulated by LPS (1 μg/ml) for 20 h. Intracellular oxidative capacity was evaluated by the DCFH oxidation assay. Data are means±SEM obtained from three experiments, triplicate conditions being performed in each experiment. *P<0.001 compared with cells preincubated with IL-9 (with or without control mIgG2b).
Cells (0.2×10^6) were preincubated with neutralizing mAb, either against TGF-β1 (30 μg/ml) or against IL-10Rβ (30 μg/ml) or with control mIgG1 (30 μg/ml), 2 hour before incubation with IL-9 (20 ng/ml) for 24 hour without removing the mAb, and stimulated with LPS (1 μg/ml) for 20 h. Intracellular oxidative capacity was evaluated by the DCFH oxidation assay.
Intracellular oxidative capacity was assessed as described by Bass et al., (Bass et al., J. Immunol. 130:1910-1917 (1983)). Briefly, the PBM and AM samples were distributed in 96-well plates with flat bottoms (Falcon) to provide 0.2×10^6cells/well. The cells were preincubated for 24 hour at 37° C., 5% CO2 with cytokines (200 u/ml for IFN-y, 20 ng/ml for IL-9 and 20 ng/ml; for IL-4) in cRPMI before being stimulated for 20 hours with LPS (1 μg/ml) without removing the cytokines. At the end of incubation with cytokines and/or LPS, cells were loaded for 15 min with 15 μM DCFH-DA in cRPMI which, after passive penetration into cells, is hydrolyzed into nonfluorescent polar DCFH and trapped inside the cells. DCFH is then oxidized into highly fluorescent DCF according to the intracellular amount of hydrogen peroxide (H2O2) produced by the respiratory burst. After three washings with phosphate-buffered saline (PBS, pH 7.4), cells were lysed in 0.1% v/v Triton X100 (Sigma) in PBS, and fluorescence was quantified in a computerized microplate spectrofluorimeter (Packard Instruments, Downers Grove, Ill., USA) at 485 nm excitation/530 nm emission wavelengths. DCF concentrations were deduced from a standard curve of known concentrations of fluorescent DCF (ranging from 0.08 to 10 μM in lysis buffer) Results were corrected for total protein concentration determined in cell lysates by the bicinchoninic acid-based method (Pierce, Rockford, Ill., USA), and were expressed as nmoles DCF/mg cell protein.

For experiment [2], the system named is CD14. The experiment in a line: CD14 surface expression on PBM by FACS. The note with it: for CD14 expression (MFI): PBM preincubated 24 hour, 20 ng/ml IL-9 or IL-4, 200 U/ml IFN-γ, means±SD, medium 107 ± 4; for CD14 expression on the surface of PBM compared with medium alone: preincubated for 24 hour. Format: cell-based, human. The procedure:
Table 2. Cells (0.2×10^6) were preincubated for 24 hour with cytokines (20 ng/ml for IL-9 or IL-4 and 200 U/ml for IFN-γ), before the assessment of LPS receptor expression by immunostaining using anti-human CD14 mAb conjugated to FITC and anti-human TLR4 rabbit Ab followed by mouse anti-rabbit IgG (MAR-FITC). Cell-associated fluorescence was evaluated by FACS and expressed as mean fluorescence intensity (MFI). Autofluorescence of PBM was negligible (MFI: 3±1). Data are means±SD (n=3), and are representative of two experiments. *P<0.05 compared with cells preincubated with medium.
Additional stainings for CD14 and Toll-like receptor (TLR)-4 were performed on PBM preincubated for 24 hour with cytokines, using respectively FITC-conjugated anti-CD14 mAb (clone MøP9, mIgG2b, Becton Dickinson) and anti-TLR4 rabbit Ab (Santa Cruz, Calif.) followed by F (ab′)2 fragments of mouse anti-rabbit IgG (MAR)-FITC.
(In flow cytometry, cells or beads pass a laser one at a time.)

Marks after values point to notes of the source that are not given here.

For the molecule “IL-4: Th2 cytokine interleukin-4 used as comparator, 20 ng/ml”, in experiment [1], the “oxidative burst in LPS-stimulated PBM with IFN-γ” value is 19.6±2.2 nmoles DCF/mg protein and the “LPS-stimulated oxidative burst in PBM” value is given as 9.4±0.6 nmoles DCF/mg protein. In experiment [2], the “CD14 expression (MFI)” value was 57 ± 3* MFI and the “CD14 expression on the surface of PBM compared with medium alone” value (“CD14 expression … compared with medium alone” below) is “down regulated”.
As for “IL-9: Human IL-9 purified from SF9 insect cell cultures infected with recombinant baculovirus”, in experiment [1] (Table 1, PBM, mAb 10 μg/ml 1 hour before IL-9 20 ng/ml 24 hour, means±SEM, medium 10.1 ± 0.4), the “Oxidative burst (nmoles DCF/mg protein)” value worked out at 10.7 ± 0.5 nmoles DCF/mg protein. In experiment [1] (Table 3, PBM, mAb 30 μg/ml 2 hour before IL-9 20 ng/ml 24 hour, means±SD, Medium 10.3 ± 0.2), the “Oxidative burst (nmoles DCF/mg protein)” value is given as 10.8 ± 0.6 nmoles DCF/mg protein. In addition, in experiment [1], the “oxidative burst in LPS-stimulated PBM with IFN-γ” value is 10.5±2.1 nmoles DCF/mg protein and the “LPS-stimulated oxidative burst in PBM” value was found to be 10.7±0.5 nmoles DCF/mg protein. In experiment [2], the “CD14 expression (MFI)” value was found to be 108 ± 5 MFI and the “CD14 expression … compared with medium alone” value is on record as “not significantly different”. In addition, the “effect on the up regulation of CD14 on PBM incubated with IFN-γ” value in experiment [2] (co-incubation with IFN-γ) is “inhibited”.

B1: IFN-γ: Interferon gamma, primes mononuclear phagocytes, 200 U/ml (protein, UniProt P01579 24-161, looked up)
Interferon gamma: QDPYVKEAENLKKYFNAGHSDVADNGTLFLGILKNWKEESDRKIMQSQIVSFYFKLFKNFKDDQSIQKSVETIKEDMNVKFFNSNKKKRDDFEKLTNYSVTDLNVQRKAIHELIQVMAELSPAAKTGKRKRSQMLFRG
Regarding B1, the “effect on LPS-stimulated oxidative burst in PBM” value in experiment [1] (preincubation 24 hour, LPS 20 hour) is given as “slightly increased”. Also, in experiment [2], the “CD14 expression (MFI)” value is listed as 121 ± 6* MFI and the “CD14 expression … compared with medium alone” value is listed as “increased”.
